{"source": "patent US6914045B2", "about": "“Glycopeptide antibiotics” (Wyeth Holdings Corporation, priority 2001, dated 2005)", "test_in_all_cases": "in vitro antibacterial evaluation, MIC by broth dilution", "format_in_all_cases": "cell-based", "conditions_in_all_cases": "broth dilution, 18 hours at 35° C.", "key": {"Escherichia coli": {"test_system": "Escherichia coli", "in_short": "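Broth dilution MIC per NCCLS M7-A2 in Mueller-Hinton II medium, inoculum 5×10^5 CFU/mL, antibiotic range 64-0.06 μg/mL. MIC taken as lowest concentration inhibiting growth.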"}, "Streptococcus sp.": {"test_system": "Streptococcus sp.", "in_short": "(§1)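 Broth dilution per NCCLS M7-A2 in Mueller-Hinton II medium, inoculum 5×10^5 CFU/mL, antibiotic range 64-0.06 μg/mL. MIC taken as lowest concentration inhibiting growth; Gram-positive panel includes recent clinical isolates resistant to methicillin, penicillin and/or vancomycin.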"}, "Enterococcus sp.": {"test_system": "Enterococcus sp.", "in_short": "as §1"}, "Staphylococcus sp.": {"test_system": "Staphylococcus sp.", "in_short": "as §1"}}}
{"compound": "CC(c1ccccc1)C1NC(=O)CNC(=O)C(CO)NC(=O)C(C(O)C2CNC(=N)N2C2OC(CO)C(O)C(O)C2O)NC(=O)C(C(O)C2CNC(=N)N2)NC(=O)C(Cc2ccc3oc(SCc4ccccc4)nc3c2)NC1=O", "note": "(stereo not drawn) [Example 45, Cyclo[3-[2-(benzylthio)-1,3-benzoxazol-5-yl]alanyl-3-(2-iminoimidazolidin-4-yl)seryl-3-(3-hexopyranosyl-2-iminoimidazolidin-4-yl)serylserylglycyl-β-methylphenylalanyl]]", "values": [{"measurement": "MIC Escherichia coli (ATCC 25922)", "setting": "Escherichia coli; strain ATCC 25922", "value": 16, "unit": "µg/mL"}, {"measurement": "MIC Escherichia coli (GC 4559)", "setting": "Escherichia coli; strain GC 4559", "value": 16, "unit": "µg/mL"}, {"measurement": "MIC Escherichia coli (GC 4560)", "setting": "Escherichia coli; strain GC 4560", "value": 4, "unit": "µg/mL"}, {"measurement": "MIC Streptococcus pneumoniae (ATCC 6301)", "setting": "Streptococcus sp.; strain ATCC 6301", "value": 16, "unit": "µg/mL"}, {"measurement": "MIC Streptococcus pneumoniae (GC 1894)", "setting": "Streptococcus sp.; strain GC 1894", "value": 16, "unit": "µg/mL"}, {"measurement": "MIC Streptococcus pyogenes (GC 4563)", "setting": "Streptococcus sp.; strain GC 4563", "value": 4, "unit": "µg/mL"}, {"measurement": "MIC Streptococcus agalactiae (GC 4564)", "setting": "Streptococcus sp.; strain GC 4564", "value": 16, "unit": "µg/mL"}, {"measurement": "MIC Streptococcus pneumoniae (GC 4565)", "setting": "Streptococcus sp.; strain GC 4565", "value": 32, "unit": "µg/mL"}, {"measurement": "MIC Enterococcus faecalis (ATCC 29212)", "setting": "Enterococcus sp.; strain ATCC 29212", "value": 32, "unit": "µg/mL"}, {"measurement": "MIC Enterococcus faecalis (GC 2242)", "setting": "Enterococcus sp.; strain GC 2242", "value": 16, "unit": "µg/mL"}, {"measurement": "MIC Enterococcus faecium (GC 2243)", "setting": "Enterococcus sp.; strain GC 2243", "value": 16, "unit": "µg/mL"}, {"measurement": "MIC Enterococcus faecalis (GC 2691)", "setting": "Enterococcus sp.; strain GC 2691", "value": 32, "unit": "µg/mL"}, {"measurement": "MIC Enterococcus faecalis (GC 3059)", "setting": "Enterococcus sp.; strain GC 3059", "value": 32, "unit": "µg/mL"}, {"measurement": "MIC Enterococcus faecalis (GC 4552)", "setting": "Enterococcus sp.; strain GC 4552", "value": 16, "unit": "µg/mL"}, {"measurement": "MIC Enterococcus faecalis (GC 4553)", "setting": "Enterococcus sp.; strain GC 4553", "value": 16, "unit": "µg/mL"}, {"measurement": "MIC Enterococcus faecalis (GC 4554)", "setting": "Enterococcus sp.; strain GC 4554", "value": 16, "unit": "µg/mL"}, {"measurement": "MIC Enterococcus faecium (GC 4556)", "setting": "Enterococcus sp.; strain GC 4556", "value": 32, "unit": "µg/mL"}, {"measurement": "MIC Enterococcus faecium (GC 4557)", "setting": "Enterococcus sp.; strain GC 4557", "value": 4, "unit": "µg/mL"}, {"measurement": "MIC Enterococcus avium (GC 4558)", "setting": "Enterococcus sp.; strain GC 4558", "value": 8, "unit": "µg/mL"}, {"measurement": "MIC Enterococcus faecalis (GC 6189)", "setting": "Enterococcus sp.; strain GC 6189", "value": 16, "unit": "µg/mL"}, {"measurement": "MIC Staphylococcus aureus (ATCC 29213)", "setting": "Staphylococcus sp.; strain ATCC 29213", "value": 8, "unit": "µg/mL"}, {"measurement": "MIC Staphylococcus aureus (GC 1131)", "setting": "Staphylococcus sp.; strain GC 1131", "value": 8, "unit": "µg/mL"}, {"measurement": "MIC Staphylococcus aureus (GC 3051)", "setting": "Staphylococcus sp.; strain GC 3051", "value": 8, "unit": "µg/mL"}, {"measurement": "MIC Staphylococcus aureus (GC 3053)", "setting": "Staphylococcus sp.; strain GC 3053", "value": 8, "unit": "µg/mL"}, {"measurement": "MIC Staphylococcus aureus (GC 4541)", "setting": "Staphylococcus sp.; strain GC 4541", "value": 16, "unit": "µg/mL"}, {"measurement": "MIC Staphylococcus aureus (GC 4542)", "setting": "Staphylococcus sp.; strain GC 4542", "value": 8, "unit": "µg/mL"}, {"measurement": "MIC Staphylococcus aureus-SMITH (GC 4543)", "setting": "Staphylococcus sp.; strain GC 4543", "value": 8, "unit": "µg/mL"}, {"measurement": "MIC Staphylococcus aureus (GC 4544)", "setting": "Staphylococcus sp.; strain GC 4544", "value": 8, "unit": "µg/mL"}, {"measurement": "MIC Staphylococcus aureus (GC 4545)", "setting": "Staphylococcus sp.; strain GC 4545", "value": 8, "unit": "µg/mL"}, {"measurement": "MIC Staphylococcus haemolyticus (GC 4546)", "setting": "Staphylococcus sp.; strain GC 4546", "value": 4, "unit": "µg/mL"}, {"measurement": "MIC Coagulase Negative Staphylococcus (GC 4547)", "setting": "Staphylococcus sp.; strain GC 4547", "value": 4, "unit": "µg/mL"}, {"measurement": "MIC Coagulase Negative Staphylococcus (GC 4548)", "setting": "Staphylococcus sp.; strain GC 4548", "value": 8, "unit": "µg/mL"}, {"measurement": "MIC Coagulase Negative Staphylococcus (GC 4549)", "setting": "Staphylococcus sp.; strain GC 4549", "value": 4, "unit": "µg/mL"}, {"measurement": "MIC Coagulase Negative Staphylococcus (GC 4551)", "setting": "Staphylococcus sp.; strain GC 4551", "value": 8, "unit": "µg/mL"}, {"measurement": "MIC Coagulase Negative Staphylococcus (GC 6257)", "setting": "Staphylococcus sp.; strain GC 6257", "value": 4, "unit": "µg/mL"}]}
